Data: patent US20060165766A1, “Method for preparing liposome formulations with a predefined release profile” (priority 2001, published 2006)
Several values for one entry are separate records, joined by “and”; a condition that tells them apart may be missing. Equal values may be shown once. Where a name gives a salt, the structure may show the parent alone.

Key:
[1] = Osmolality measurements: contribution of amphipathic base to osmotic pressure of salt solutions (aggregation); type: physicochemical; settings: for mOsm versos mM (slope); extent of dissociation: slope of osmolality (mOsm) versus concentration (mM); for % of expected value of osmolality contribution / Level of aggregation / Expected contribution of 25 mM amphipathic base to osmolality (calibrated in DDW and NaCl): 25 mM base; for Expected contribution of 25 mM amphipathic base to osmolality (calibrated in DDW and NaCl): pure water or NaCl solutions; for Osmolality of agent: 25 mM in DDW (pure water)
Method: Level of aggregation of the exemplified agents was evaluated by measuring osmotic pressure. Osmotic pressure is a colrgative property, depending on the actual concentration (particles per unit volume) of a solution. Thus, in case of aggregate formation in a solution, the actual concentration of the solution will be lower than the theoretical concentration of the solution, which will be evident by a lower than expected osmotic pressure.
For osmotic pressure measurements, double distilled water (DDW) obtained using Water ProPlus (Labconco, Kansas City, Mo., USA) was used for all solutions. Osmolality was measured using a 5500 Vapor Pressure Osmometer (Wescor Inc., Logan, Utah, USA) or freezing point osmometer μOSMETIE MicroOsmometer of Precision Systems (atich, MA, USA). Calibration curves of TMN, AO, and BUP osmolality in the range of 10-40 mM in pure water were used to describe the relationship between concentration and osmotic pressure of all compounds.
The effect of salts on the osmotic pressure of the amphipathic base (25 mM) was also examined by comparing the effect of NaCl with that of various ammonium salts. As a control, the osmotic pressure of each salt alone was also measured.

[2] = Conductivity measurements of salts; type: physicochemical; settings: salt 50 mM in DDW
Method: Solutions in concentration range of 0.5-50 mM of NaCl and ammonium salts were prepared in DDW and measured in an “Oyster” conductivity meter (KTech).

[3] = Partition coefficient (Kp) octanol/water; type: physicochemical
From the text: Other parameters that may influence kinetics of release include the lipophilicity of the loaded agent and the liposome trapped volume. The higher the lipophilicity, the faster will be the release rate of the agent from the liposome. The lipophilicity of a compound may be reflected by its partition coefficient (Kp) is between octanol and water.

[4] = Aggregation of BUP and AO with dextran sulfate (DS); type: physicochemical; settings: for Mole ratio weak base/DS at which aggregation (precipitation) starts: dextran sulfate
From the text: The dependence of the aggregation process on the loaded molecule was shown by the examples of BUP and AO. […] This however can be modified through the use of sodium salt of dextran sulfate as an additional counter ion. […]

[5] = Kinetics of TMN leakage from egg PC MLV; settings: for Leakage from liposomes: 4° C.

% of expected value of osmolality contribution ([1]; ammonium chloride 40 mM) [%]	% of expected value of osmolality contribution ([1]; ammonium chloride 80 mM) [%]	Level of aggregation ([1]; ammonium chloride 80 mM)	% of expected value of osmolality contribution ([1]; ammonium citrate 40 mM) [%]	% of expected value of osmolality contribution ([1]; ammonium citrate 80 mM) [%]	Level of aggregation ([1]; ammonium citrate 80 mM)	% of expected value of osmolality contribution ([1]; ammonium glucuronate 40 mM) [%]	% of expected value of osmolality contribution ([1]; ammonium glucuronate 80 mM) [%]	Level of aggregation ([1]; ammonium glucuronate 80 mM)	% of expected value of osmolality contribution ([1]; ammonium phosphate 40 mM) [%]	% of expected value of osmolality contribution ([1]; ammonium phosphate 80 mM) [%]	% of expected value of osmolality contribution ([1]; ammonium sulfate 40 mM) [%]	% of expected value of osmolality contribution ([1]; ammonium sulfate 80 mM) [%]	Level of aggregation ([1]; ammonium sulfate 80 mM)	Expected contribution of 25 mM amphipathic base to osmolality (calibrated in DDW and NaCl) [1]	Osmolality of agent [1] [mOsm]	Measured contribution of 25 mM base to osmolality ([1]; ammonium chloride 40 mM) [mOsm]	Measured contribution of 25 mM base to osmolality ([1]; ammonium chloride 80 mM)	Measured contribution of 25 mM base to osmolality ([1]; ammonium citrate 40 mM) [mOsm]	Compound	mOsm versos mM (slope); extent of dissociation [1]	further results
																			N.N.O=P(O)(O)O [(NH4)2HPO4, ammonium phosphate, dibasic]	2.83	
																			N.N.O=S(=O)(O)O [(NH4)2SO4, ammonium sulfate]	2.97	
																			N.N.N.O=C(O)CC(O)(CC(=O)O)C(=O)O [(NH4)3 citrate, ammonium citrate, tribasic]	3.45	Conductivity [2]: 11.96
100	100	None//None	96	90	Low	100	100	None//None	92	79	94	85	Low	48±4 mOsm and 48 mOsm	48	49	51 mOsm and 48 mOsm	46	CN(C)c1ccc2cc3ccc(N(C)C)cc3nc2c1 [AO, Acridine orange hemi(zinc chloride) salt]		Measured contribution of 25 mM base to osmolality ([1]; ammonium citrate 80 mM): 43 mOsm; Measured contribution of 25 mM base to osmolality ([1]; ammonium glucuronate 40 mM): 48 mOsm; Measured contribution of 25 mM base to osmolality ([1]; ammonium glucuronate 80 mM): 50 mOsm and 48 mOsm; Measured contribution of 25 mM base to osmolality ([1]; ammonium phosphate 40 mM): 44 mOsm; Measured contribution of 25 mM base to osmolality ([1]; ammonium phosphate 80 mM): 41 mOsm and 38 mOsm; Measured contribution of 25 mM base to osmolality ([1]; ammonium sulfate 40 mM): 45 mOsm; Measured contribution of 25 mM base to osmolality ([1]; ammonium sulfate 80 mM): 44 mOsm and 41 mOsm; Partition coefficient (Kp) octanol/water ([3]; pH 5.5, 120 mM (NH4)2SO4): 9.00 (at pH 5.5, 120 mM (NH4)2SO4); Ratio at saturation of precipitation ([4]; DS 8,000 Da): 40; Ratio at saturation of precipitation ([4]; DS 10,000 Da): 50; Ratio at which aggregation reaches a plateau ([4]; DS 10,000 Da): 50 nmole AO or BUP per 1 mmole DS; Mole ratio weak base/DS at which aggregation (precipitation) starts [4]: 1
97	100	None//None	100	91	None	100	100	None//None	97	84	97	88	None	32±5 mOsm and 32 mOsm	32	31	30 mOsm and 32 mOsm	32	CCCCN1CCCCC1C(=O)Nc1c(C)cccc1C (stereo not drawn) [BUP, bupivacaine]		Level of aggregation ([1]; ammonium phosphate 80 mM): None//|Low; Measured contribution of 25 mM base to osmolality ([1]; ammonium citrate 80 mM): 25 mOsm and 29 mOsm; Measured contribution of 25 mM base to osmolality ([1]; ammonium glucuronate 40 mM): 33 mOsm; Measured contribution of 25 mM base to osmolality ([1]; ammonium glucuronate 80 mM): 31 mOsm and 32 mOsm; Measured contribution of 25 mM base to osmolality ([1]; ammonium phosphate 40 mM): 30 mOsm; Measured contribution of 25 mM base to osmolality ([1]; ammonium phosphate 80 mM): 30 mOsm and 27 mOsm; Measured contribution of 25 mM base to osmolality ([1]; ammonium sulfate 40 mM): 31 mOsm; Measured contribution of 25 mM base to osmolality ([1]; ammonium sulfate 80 mM): 29 mOsm and 28 mOsm; Partition coefficient (Kp) octanol/water ([3]; pH 6, 250 mM (NH4)2SO4): 0.35 (at pH 6, 250 mM (NH4)2SO4); Ratio at which aggregation reaches a plateau ([4]; DS 10,000 Da): 50 nmole AO or BUP per 1 mmole DS; Mole ratio weak base/DS at which aggregation (precipitation) starts [4]: 1.0
																			N.O=C[C@H](O)[C@@H](O)[C@H](O)[C@H](O)C(=O)O [NH4 glucuronate, Ammonium glucuronate]	1.62	Conductivity [2]: 3.88 mS/cm
																			Cl.N [NH4Cl, Ammonium chloride]	1.96	
																			[Cl-].[Na+] [NaCl]	2.00	

Compound	% of expected value of osmolality contribution ([1]; ammonium chloride 40 mM) [%]	% of expected value of osmolality contribution ([1]; ammonium chloride 80 mM) [%]	Level of aggregation ([1]; ammonium chloride 80 mM)	% of expected value of osmolality contribution ([1]; ammonium citrate 40 mM) [%]	% of expected value of osmolality contribution ([1]; ammonium citrate 80 mM) [%]	Level of aggregation ([1]; ammonium citrate 80 mM)	% of expected value of osmolality contribution ([1]; ammonium glucuronate 40 mM) [%]	% of expected value of osmolality contribution ([1]; ammonium glucuronate 80 mM) [%]	Level of aggregation ([1]; ammonium glucuronate 80 mM)	% of expected value of osmolality contribution ([1]; ammonium phosphate 40 mM) [%]	% of expected value of osmolality contribution ([1]; ammonium phosphate 80 mM) [%]	% of expected value of osmolality contribution ([1]; ammonium sulfate 40 mM) [%]	% of expected value of osmolality contribution ([1]; ammonium sulfate 80 mM) [%]	Level of aggregation ([1]; ammonium sulfate 80 mM)	Expected contribution of 25 mM amphipathic base to osmolality (calibrated in DDW and NaCl) [1]	Osmolality of agent [1] [mOsm]	Measured contribution of 25 mM base to osmolality ([1]; ammonium chloride 40 mM) [mOsm]	Measured contribution of 25 mM base to osmolality ([1]; ammonium chloride 80 mM)	Measured contribution of 25 mM base to osmolality ([1]; ammonium citrate 40 mM) [mOsm]	mOsm versos mM (slope); extent of dissociation [1]	further results
CC1(C)CC(N)CC(C)(C)N1[O] [TMN, 2,2,6,6-tetramethylpiperidine-4-amino-1-oxyl]	100	60	medium	62	20	high	95	90	None	71	20	19	0	complete	21 mOsm	21	21	12 mOsm	13		Level of aggregation ([1]; ammonium chloride 40 mM): Low; Level of aggregation ([1]; ammonium citrate 40 mM): Medium; Level of aggregation ([1]; ammonium glucuronate 40 mM): None; Level of aggregation ([1]; ammonium phosphate 40 mM): Medium; Level of aggregation ([1]; ammonium phosphate 80 mM): high; Level of aggregation ([1]; ammonium sulfate 40 mM): High; Aggregation in NaCl solutions ([1]; NaCl): lack of aggregate formation; Ranking of extent of aggregation with ammonium salts ([1]; Tables Ia, Ib, Ic): ammonium sulfate>ammonium citrate=ammonium phosphate>>ammonium chloride>ammonium glucuronate; Measured contribution of 25 mM base to osmolality ([1]; ammonium citrate 80 mM): 5 mOsm; Measured contribution of 25 mM base to osmolality ([1]; ammonium glucuronate 40 mM): 20 mOsm; Measured contribution of 25 mM base to osmolality ([1]; ammonium glucuronate 80 mM): 19 mOsm; Measured contribution of 25 mM base to osmolality ([1]; ammonium phosphate 40 mM): 15 mOsm; Measured contribution of 25 mM base to osmolality ([1]; ammonium phosphate 80 mM): 5 mOsm; Measured contribution of 25 mM base to osmolality ([1]; ammonium sulfate 40 mM): 4 mOsm; Measured contribution of 25 mM base to osmolality ([1]; ammonium sulfate 80 mM): 0 mOsm; Partition coefficient (Kp) octanol/water ([3]; pH 7, 150 mM (NH4)2SO4): 0.04 (at pH 7, 150 mM (NH4)2SO4); Leakage from liposomes ([5]; ammonium chloride gradient): less than 10%; Leakage from liposomes ([5]; ammonium glucuronate gradient): less than 10%; Leakage from liposomes ([5]; ammonium sulfate gradient, until 144 hr): no TV leakage was observed; Order of encapsulation stability by ammonium salt ([5]; 25° C. and 37° C.): (NH4)2SO4>>NH4Cl>NH4 glucuronate
